Measurements from US9434724B2, “Quinuclidines for modulating alpha 7 activity” (priority 2014, dated 2016).

How the values were obtained:
Assay type in all cases: in vitro ADME
[1] = Metabolic stability assay in rat liver microsomes (RLM); conditions: 1 μM
How it was run: (§1)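 In Protocol 1, compound was 1 μM final with NADPH at 37 °C, sampled at 0–45 min. In Protocol 2, 1.5 μM compound with 0.75 mg/mL microsomes (pre-NADPH mix) in 0.1 M potassium phosphate, 1 mM EDTA, pH 7.4 was pre-incubated 10 min, then NADPH started the reaction. Both: LC-MS/MS % remaining versus time 0, half-life from single-phase exponential fit.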

Human plasma stability = conditions: plasma; for % Remaining @ 2 h: 5 μM
How it was run: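 Compound remaining was quantified by LC-MS/MS as peak-area ratio to internal standard relative to time 0, with half-lives from single-exponential fits. Protocol 1 incubated 1 μM in heparinized human plasma (pH 7.4, 37° C) to 120 min; protocol 2 used 5 μM, pH 7.4–8.0, 37° C, n=2, to 120 min.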

[2] = Metabolic stability assay in human liver microsomes (HLM); conditions: 1 μM
How it was run: as §1

Row | SMILES | RLM ([1]; rat, microsomes) [mL/min/kg] | % Remaining @ 2 h (Human plasma stability; human, 2 h) [%] | HLM ([2]; human, microsomes) [mL/min/kg] | RLM ([1]; Protocol No. 1, rat liver microsomes) [mL/min/kg] | % Remaining @ 2 h (Human plasma stability; Protocol No. 2, 37° C.) [%] | HLM ([2]; Protocol No. 1, human liver microsomes) [mL/min/kg] | T1/2 (Human plasma stability; human)
1 | O=C(OCC12CCN(CC1)CC2)c1c[nH]c2cc(O)cc(Cl)c12 [Compound 46, quinuclidin-4-ylmethyl 4-chloro-6-hydroxy-1H-indole-3-carboxylate] | 32.4827 | 91.9 | 7.385 |  |  |  | 
2 | Cc1cc(Cl)c2c(C(=O)OCC34CCN(CC3)CC4)c[nH]c2c1.Cl [Compound 65, quinuclidin-4-ylmethyl 4-chloro-6-methyl-1H-indole-3-carboxylate hydrochloride] |  |  |  | 286.666 | 72.66 | 2.253 | 
3 | COc1c(OCC(F)(F)F)ccc2[nH]cc(C(=O)OCC34CCN(CC3)CC4)c12 [Compound 88, quinuclidin-4-ylmethyl 4-methoxy-5-(2,2,2-trifluoroethoxy)-1H-indole-3-carboxylate] | 25.96 | 110.47 | 3.31 |  |  |  | ∞
